Experimental findings from patent publication US12522602B2, “Derivatives having 2,3-dihydro-1H-indene or 2,3-dihydrobenzofuran moiety or pharmaceutically acceptable salt thereof and pharmaceutical compositions comprising the same” (YUHAN CORPORATION, priority 2019, dated 2026) are described below.

The subject of the experiment is GM1 production in Jurkat cells. The experiment is described as follows: cells. Type of experiment: cell-based. The conditions noted are these: Homo sapiens, Jurkat, 72 h.

A word on the IC50: it is the concentration that inhibits the measured activity by half. Low readings indicate inhibition by little substance, high ones a need for much substance. Turning to `Cc1ccc(Cl)c(-c2ccc3c(c2)CC(C)(C)C3NC(=O)O[C@@H]2CN3CCC2CC3)c1` (stereo partly drawn) [Example 223, (S)-quinuclidin-3-yl (5-(2-chloro-5-methylphenyl)-2,2-dimethyl-2,3-dihydro-1H-inden-1-yl)carbamate], the IC50 stood at 5.2 nM.

`COc1cc(-c2ccc3c(c2)CC(C)(C)C3NC(=O)O[C@@H]2CN3CCC2CC3)cc(C(F)(F)F)c1` (stereo partly drawn) [Example 224, (S)-quinuclidin-3-yl (5-(3-methoxy-5-(trifluoromethyl)phenyl)-2,2-dimethyl-2,3-dihydro-1H-inden-1-yl)carbamate]: the midpoint of inhibition, the IC50, lay at 18.8 nM.

With `CC1(C)Cc2cc(-c3ccc(F)cc3Cl)ccc2C1NC(=O)O[C@@H]1CN2CCC1CC2` (stereo partly drawn) [Example 225, (S)-quinuclidin-3-yl (5-(2-chloro-4-fluorophenyl)-2,2-dimethyl-2,3-dihydro-1H-inden-1-yl)carbamate], the IC50 stood at 21.3 nM.

Take `COc1cc(-c2ccc3c(c2)CC(C)(C)C3NC(=O)O[C@@H]2CN3CCC2CC3)ccc1F` (stereo partly drawn) [Example 226, (S)-quinuclidin-3-yl (5-(4-fluoro-3-methoxyphenyl)-2,2-dimethyl-2,3-dihydro-1H-inden-1-yl)carbamate]: the IC50 stood at 57 nM.

In turn, `Cc1ccc(-c2ccc3c(c2)CC(C)(C)C3NC(=O)O[C@@H]2CN3CCC2CC3)cc1C` (stereo partly drawn) [Example 227, (S)-quinuclidin-3-yl (5-(3,4-dimethylphenyl)-2,2-dimethyl-2,3-dihydro-1H-inden-1-yl)carbamate] had an IC50 of 10.2 nM.

The molecule `Cc1cc(F)ccc1-c1ccc2c(c1)CC(C)(C)C2NC(=O)O[C@@H]1CN2CCC1CC2` (stereo partly drawn) [Example 228, (S)-quinuclidin-3-yl (5-(4-fluoro-2-methylphenyl)-2,2-dimethyl-2,3-dihydro-1H-inden-1-yl)carbamate] yielded an IC50 of 48.6 nM.

The molecule `CC1(C)Cc2cc(-c3ccc(C(F)(F)F)cc3F)ccc2C1NC(=O)O[C@@H]1CN2CCC1CC2` (stereo partly drawn) [Example 229, (S)-quinuclidin-3-yl (5-(2-fluoro-4-(trifluoromethyl)phenyl)-2,2-dimethyl-2,3-dihydro-1H-inden-1-yl)carbamate] registered an IC50 of 56.2 nM.

Consider `COc1ccc(F)c(-c2ccc3c(c2)CC(C)(C)C3NC(=O)O[C@@H]2CN3CCC2CC3)c1` (stereo partly drawn) [Example 230, (S)-quinuclidin-3-yl (5-(2-fluoro-5-methoxyphenyl)-2,2-dimethyl-2,3-dihydro-1H-inden-1-yl)carbamate], for which inhibition was half-maximal at 30.8 nM (IC50).

On to `COc1cccc(-c2ccc3c(c2)CC(C)(C)C3NC(=O)O[C@@H]2CN3CCC2CC3)c1F` (stereo partly drawn) [Example 231, (S)-quinuclidin-3-yl (5-(2-fluoro-3-methoxyphenyl)-2,2-dimethyl-2,3-dihydro-1H-inden-1-yl)carbamate], for which half-maximal inhibition (IC50) required 24.3 nM.

As for `COc1ccc(C(C)C)cc1-c1ccc2c(c1)CC(C)(C)C2NC(=O)O[C@@H]1CN2CCC1CC2` (stereo partly drawn) [Example 232, (S)-quinuclidin-3-yl (5-(5-isopropyl-2-methoxyphenyl)-2,2-dimethyl-2,3-dihydro-1H-inden-1-yl)carbamate], the midpoint of inhibition, the IC50, lay at 12.5 nM.

In turn, `Cc1ccc(-c2ccc3c(c2)CC(C)(C)C3NC(=O)O[C@@H]2CN3CCC2CC3)c(F)c1` (stereo partly drawn) [Example 233, (S)-quinuclidin-3-yl (5-(2-fluoro-4-methylphenyl)-2,2-dimethyl-2,3-dihydro-1H-inden-1-yl)carbamate] gave an IC50 of 23.3 nM.

In turn, `COc1ccc(F)cc1-c1ccc2c(c1)CC(C)(C)C2NC(=O)O[C@@H]1CN2CCC1CC2` (stereo partly drawn) [Example 234, (S)-quinuclidin-3-yl (5-(5-fluoro-2-methoxyphenyl)-2,2-dimethyl-2,3-dihydro-1H-inden-1-yl)carbamate] returned an IC50 of 13.6 nM.

Molecule `Cc1cc(-c2ccc3c(c2)CC(C)(C)C3NC(=O)O[C@@H]2CN3CCC2CC3)co1` (stereo partly drawn) [Example 235, (S)-quinuclidin-3-yl (2,2-dimethyl-5-(5-methylfuran-3-yl)-2,3-dihydro-1H-inden-1-yl)carbamate] showed an IC50 of 6.5 nM.

`COc1c(F)cccc1-c1ccc2c(c1)CC(C)(C)C2NC(=O)O[C@@H]1CN2CCC1CC2` (stereo partly drawn) [Example 236, (S)-quinuclidin-3-yl (5-(3-fluoro-2-methoxyphenyl)-2,2-dimethyl-2,3-dihydro-1H-inden-1-yl)carbamate] came in with an IC50 of 32.4 nM.

As for `CC1(C)Cc2cc(-c3cccc(F)c3Cl)ccc2C1NC(=O)O[C@@H]1CN2CCC1CC2` (stereo partly drawn) [Example 237, (S)-quinuclidin-3-yl (5-(2-chloro-3-fluorophenyl)-2,2-dimethyl-2,3-dihydro-1H-inden-1-yl)carbamate], 29.2 nM corresponded to half-maximal inhibition (IC50).

`CC1(C)Cc2cc(-c3csc4ccccc34)ccc2C1NC(=O)O[C@@H]1CN2CCC1CC2` (stereo partly drawn) [Example 238, (S)-quinuclidin-3-yl (5-(benzo[b]thiophen-3-yl)-2,2-dimethyl-2,3-dihydro-1H-inden-1-yl)carbamate] had an IC50 of 13.2 nM.

In turn, `CCCOc1cc(F)ccc1-c1ccc2c(c1)CC(C)(C)C2NC(=O)O[C@@H]1CN2CCC1CC2` (stereo partly drawn) [Example 239, (S)-quinuclidin-3-yl (5-(4-fluoro-2-propoxyphenyl)-2,2-dimethyl-2,3-dihydro-1H-inden-1-yl)carbamate] gave an IC50 of 48.9 nM.

`Cc1cc(-c2ccc3c(c2)CC(C)(C)C3NC(=O)O[C@@H]2CN3CCC2CC3)cc(C(C)(C)C)c1` (stereo partly drawn) [Example 240, (S)-quinuclidin-3-yl (5-(3-(tert-butyl)-5-methylphenyl)-2,2-dimethyl-2,3-dihydro-1H-inden-1-yl)carbamate] registered an IC50 of 51.3 nM.

`CCOc1ccc(Cl)c(-c2ccc3c(c2)CC(C)(C)C3NC(=O)O[C@@H]2CN3CCC2CC3)c1` (stereo partly drawn) [Example 241, (S)-quinuclidin-3-yl (5-(2-chloro-5-ethoxyphenyl)-2,2-dimethyl-2,3-dihydro-1H-inden-1-yl)carbamate] registered an IC50 of 51.3 nM.

With `CC1(C)Cc2cc(-c3ccc(Cl)c(F)c3)ccc2C1NC(=O)O[C@@H]1CN2CCC1CC2` (stereo partly drawn) [Example 242, (S)-quinuclidin-3-yl (5-(4-chloro-3-fluorophenyl)-2,2-dimethyl-2,3-dihydro-1H-inden-1-yl)carbamate], half-maximal inhibition (IC50) was put at 64.4 nM.

As for `Cc1cccc(-c2ccc3c(c2)CC(C)(C)C3NC(=O)O[C@@H]2CN3CCC2CC3)c1F` (stereo partly drawn) [Example 243, (S)-quinuclidin-3-yl (5-(2-fluoro-3-methylphenyl)-2,2-dimethyl-2,3-dihydro-1H-inden-1-yl)carbamate], half-maximal inhibition (IC50) was put at 21.4 nM.

Turning to `COc1ccc(C#N)cc1-c1ccc2c(c1)CC(C)(C)C2NC(=O)O[C@@H]1CN2CCC1CC2` (stereo partly drawn) [Example 244, (S)-quinuclidin-3-yl (5-(5-cyano-2-methoxyphenyl)-2,2-dimethyl-2,3-dihydro-1H-inden-1-yl)carbamate], the midpoint of inhibition, the IC50, lay at 38 nM.

Molecule `CCOc1cc(-c2ccc3c(c2)CC(C)(C)C3NC(=O)O[C@@H]2CN3CCC2CC3)cc(C(F)(F)F)c1` (stereo partly drawn) [Example 245, (S)-quinuclidin-3-yl (5-(3-ethoxy-5-(trifluoromethyl)phenyl)-2,2-dimethyl-2,3-dihydro-1H-inden-1-yl)carbamate] displayed an IC50 of 23 nM.

Turning to `CC1(C)Cc2cc(-c3cc(F)cc(C(F)(F)F)c3)ccc2C1NC(=O)O[C@@H]1CN2CCC1CC2` (stereo partly drawn) [Example 246, (S)-quinuclidin-3-yl (5-(3-fluoro-5-(trifluoromethyl)phenyl)-2,2-dimethyl-2,3-dihydro-1H-inden-1-yl)carbamate], the half-inhibitory concentration (IC50) came out at 14.7 nM.

As to `Cc1cc(-c2ccc3c(c2)CC(C)(C)C3NC(=O)O[C@@H]2CN3CCC2CC3)ccc1OC(F)(F)F` (stereo partly drawn) [Example 247, (S)-quinuclidin-3-yl (2,2-dimethyl-5-(3-methyl-4-(trifluoromethoxy)phenyl)-2,3-dihydro-1H-inden-1-yl)carbamate], the IC50 was found to be 41 nM.

As for `CSc1cc(-c2ccc3c(c2)CC(C)(C)C3NC(=O)O[C@@H]2CN3CCC2CC3)cc(C(F)(F)F)c1` (stereo partly drawn) [Example 248, (S)-quinuclidin-3-yl (2,2-dimethyl-5-(3-(methylthio)-5-(trifluoromethyl)phenyl)-2,3-dihydro-1H-inden-1-yl)carbamate], 14.9 nM corresponded to half-maximal inhibition (IC50).

For the molecule `CC1(C)Cc2cc(-c3ccc(OC(F)(F)F)c(F)c3)ccc2C1NC(=O)O[C@@H]1CN2CCC1CC2` (stereo partly drawn) [Example 249, (S)-quinuclidin-3-yl (5-(3-fluoro-4-(trifluoromethoxy)phenyl)-2,2-dimethyl-2,3-dihydro-1H-inden-1-yl)carbamate], the midpoint of inhibition, the IC50, lay at 37 nM.

`CCOc1cc(C(F)(F)F)ccc1-c1ccc2c(c1)CC(C)(C)C2NC(=O)O[C@@H]1CN2CCC1CC2` (stereo partly drawn) [Example 250, (S)-quinuclidin-3-yl (5-(2-ethoxy-4-(trifluoromethyl)phenyl)-2,2-dimethyl-2,3-dihydro-1H-inden-1-yl)carbamate] yielded an IC50 of 33 nM.

With `COc1ccc(C(F)(F)F)cc1-c1ccc2c(c1)CC(C)(C)C2NC(=O)O[C@@H]1CN2CCC1CC2` (stereo partly drawn) [Example 251, (S)-quinuclidin-3-yl (5-(2-methoxy-5-(trifluoromethyl)phenyl)-2,2-dimethyl-2,3-dihydro-1H-inden-1-yl)carbamate], half-maximal inhibition (IC50) required 7.2 nM.

Take `CC1(C)Cc2cc(-c3ccc(C(F)(F)F)cc3C(F)(F)F)ccc2C1NC(=O)O[C@@H]1CN2CCC1CC2` (stereo partly drawn) [Example 252, (S)-quinuclidin-3-yl (5-(2,4-bis(trifluoromethyl)phenyl)-2,2-dimethyl-2,3-dihydro-1H-inden-1-yl)carbamate]: the IC50 turned out to be 43.9 nM.

Turning to `Cc1c(Cl)cccc1-c1ccc2c(c1)CC(C)(C)C2NC(=O)O[C@@H]1CN2CCC1CC2` (stereo partly drawn) [Example 253, (S)-quinuclidin-3-yl (5-(3-chloro-2-methylphenyl)-2,2-dimethyl-2,3-dihydro-1H-inden-1-yl)carbamate], the IC50 amounted to 37.2 nM.

`COc1cc(-c2ccc3c(c2)CC(C)(C)C3NC(=O)O[C@@H]2CN3CCC2CC3)ccc1C` (stereo partly drawn) [Example 254, (S)-quinuclidin-3-yl (5-(3-methoxy-4-methylphenyl)-2,2-dimethyl-2,3-dihydro-1H-inden-1-yl)carbamate] came in with an IC50 of 45.2 nM.

The molecule `Cc1cc(-c2ccc3c(c2)CC(C)(C)C3NC(=O)O[C@@H]2CN3CCC2CC3)ccc1F` (stereo partly drawn) [Example 255, (S)-quinuclidin-3-yl (5-(4-fluoro-3-methylphenyl)-2,2-dimethyl-2,3-dihydro-1H-inden-1-yl)carbamate] returned an IC50 of 35.8 nM.
